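Five compound concentrations were applied to cells in 96-well plates for 48 hours; endpoints were derived by simple linear interpolation of the resulting dose-response curve. Abbreviation: GI50, concentration required for 50% inhibition of growth.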 Active and inactive are the calls of the source. No stated cut-off is given here; in the data, active = GI50 up to about 1.1 µM and inactive = higher.
Tests used:
Experiment in all cases: DTP human tumour cell line panel, 48 h
SK-MEL-2 = tested on: SK-MEL-2
HT-29 = tested on: HT-29
PC-3 = tested on: PC-3
UO-31 = tested on: UO-31
NCI-H226 = tested on: NCI-H226
MDA-MB-231 = tested on: MDA-MB-231
IGROV-1 = tested on: IGROV-1
NCI-H460 = tested on: NCI-H460
SNB-19 = tested on: SNB-19
NCI/ADR-RES = tested on: NCI/ADR-RES
HCT-116 = tested on: HCT-116
HCT-15 = tested on: HCT-15
SF-295 = tested on: SF-295
Hs-578T = tested on: Hs-578T
OVCAR-4 = tested on: OVCAR-4
EKVX = tested on: EKVX
ACHN = tested on: ACHN
T47D = tested on: T47D
NCI-H522 = tested on: NCI-H522

| SMILES | GI50 (SK-MEL-2) | GI50 (HT-29) | GI50 (PC-3) | GI50 (UO-31) | GI50 (NCI-H226) | GI50 (MDA-MB-231) | GI50 (IGROV-1) | GI50 (NCI-H460) | GI50 (SNB-19) | GI50 (NCI/ADR-RES) | GI50 (HCT-116) | GI50 (HCT-15) | GI50 (SF-295) | GI50 (Hs-578T) | GI50 (OVCAR-4) | GI50 (EKVX) | GI50 (ACHN) | GI50 (T47D) | GI50 (NCI-H522) |
| --- | --- | --- | --- | --- | --- | --- | --- | --- | --- | --- | --- | --- | --- | --- | --- | --- | --- | --- | --- |
| COC(=O)c1c(O)ccc2c1c1c(n2Cc2cc(OC)cc(OC)c2)C(=O)c2ccccc2C1 | 50.6 µM (inactive) | 11.7 µM (inactive) | 16.9 µM (inactive) | 63.4 µM (inactive) | 93.3 µM (inactive) | 24 µM (inactive) | 30.3 µM (inactive) | 31 µM (inactive) | > 100 µM (inactive) | 16.7 µM (inactive) | 8.28 µM (inactive) | 32.1 µM | 52.6 µM (inactive) | 87.3 µM (inactive) | 11.2 µM (inactive) |  |  |  |  |
| O=C1NN=C(O)C2C3c4ccccc4C(c4ccccc43)C12 (stereo not drawn) |  | > 100 µM (inactive) | > 100 µM (inactive) | > 100 µM (inactive) | > 100 µM (inactive) | > 100 µM (inactive) | > 100 µM (inactive) | > 100 µM (inactive) | > 100 µM (inactive) | > 100 µM (inactive) | > 100 µM (inactive) | > 100 µM | > 100 µM (inactive) | > 100 µM (inactive) | > 100 µM (inactive) | > 100 µM (inactive) | > 100 µM (inactive) | > 100 µM (inactive) |  |
| CSc1c(C(=O)Nc2ccc(C)cc2)c(N)nn1-c1ccccc1 | > 100 µM (inactive) | > 100 µM (inactive) | 39.5 µM (inactive) | > 100 µM (inactive) | > 100 µM (inactive) | 40.6 µM (inactive) | 36.1 µM (inactive) | 3.55 µM (inactive) | 26.7 µM (inactive) |  | 49.4 µM (inactive) | > 100 µM | 48.8 µM (inactive) | 46.9 µM (inactive) | 13 µM (inactive) | 49.4 µM (inactive) | 43.8 µM (inactive) | 98.9 µM (inactive) | 71.4 µM (inactive) |
| O=S1(=O)OCCCOS(=O)(=O)C1Br | > 100 µM (inactive) | > 100 µM (inactive) | > 100 µM (inactive) | > 100 µM (inactive) | > 100 µM (inactive) |  |  |  | > 100 µM (inactive) | > 100 µM (inactive) | > 100 µM (inactive) | > 100 µM | > 100 µM (inactive) |  | > 100 µM (inactive) | > 100 µM (inactive) | > 100 µM (inactive) | > 100 µM (inactive) | > 100 µM (inactive) |
| Oc1ccc(N=C2CCC(=C(c3ccccc3)c3ccc(Nc4ccc(O)cc4)cc3)CC2)cc1 | 77.6 µM (inactive) | 48.8 µM (inactive) | 96.2 µM (inactive) | 57.4 µM (inactive) | > 100 µM (inactive) | 75.5 µM (inactive) |  | 85.7 µM (inactive) | 78.5 µM (inactive) | 80.9 µM (inactive) | 39.4 µM (inactive) | > 100 µM | > 100 µM (inactive) |  | 86.5 µM (inactive) |  | 67.1 µM (inactive) |  | 47 µM (inactive) |
| CC(=O)N1C(OC(C)C)CC(C)N1c1ccccc1 (stereo not drawn) | > 10 µM (inactive) | > 10 µM (inactive) | > 10 µM (inactive) |  | > 10 µM (inactive) | > 10 µM (inactive) | > 10 µM (inactive) | > 10 µM (inactive) | > 10 µM (inactive) | > 10 µM (inactive) | > 10 µM (inactive) | > 10 µM | > 10 µM (inactive) | > 10 µM (inactive) | > 10 µM (inactive) | > 10 µM (inactive) | > 10 µM (inactive) | > 10 µM (inactive) |  |
| Cc1ccc2c(c1)CN1c3ccc(C)cc3CN2C1c1ccccc1O | 48.9 µM (inactive) | 42 µM (inactive) |  | 24.9 µM (inactive) | 49.5 µM (inactive) |  | 79.4 µM (inactive) | 33.9 µM (inactive) |  |  | 18.7 µM (inactive) | 23.6 µM | 46.8 µM (inactive) |  | 57 µM (inactive) | 7.19 µM (inactive) | 40.3 µM (inactive) |  | 65.6 µM (inactive) |
| CCOC(=O)[C@@]12C[C@](/C=C/OC)(O[Si](C)(C)C)[C@@]13c1cc(OC)c(OC)cc1CCN3C(=O)C2=O | > 100 µM (inactive) | > 100 µM (inactive) | > 100 µM (inactive) | > 100 µM (inactive) | > 100 µM (inactive) | > 100 µM (inactive) | > 100 µM (inactive) | > 100 µM (inactive) | > 100 µM (inactive) | > 100 µM (inactive) | > 100 µM (inactive) | > 100 µM | > 100 µM (inactive) | > 100 µM (inactive) | > 100 µM (inactive) | > 100 µM (inactive) | > 100 µM (inactive) | > 100 µM (inactive) |  |
| O=C(N/N=C/c1cc(Cl)cc(Cl)c1O)c1ccncc1 |  | > 10 µM (inactive) |  | 71.1 µM (inactive) | > 100 µM (inactive) |  | 63.5 µM (inactive) | 39 µM (inactive) | > 100 µM (inactive) |  | > 100 µM (inactive) | 29.7 µM | 60.1 µM (inactive) |  |  | 22 µM (inactive) | 68.9 µM (inactive) |  | > 100 µM (inactive) |
| Cc1nc(-c2cc3c(ccc4ccccc43)oc2=O)cc2c1c(=O)oc1ccc3ccccc3c12 | > 100 µM (inactive) | > 100 µM (inactive) | > 100 µM (inactive) | > 100 µM (inactive) |  | > 100 µM (inactive) | > 100 µM (inactive) | > 100 µM (inactive) | > 100 µM (inactive) | > 100 µM (inactive) | > 100 µM (inactive) | > 100 µM | > 100 µM (inactive) |  | > 100 µM (inactive) | > 100 µM (inactive) | > 100 µM (inactive) | > 100 µM (inactive) | > 100 µM (inactive) |
| Cc1n[nH]c(=O)n1/N=C/c1cccc(Cl)c1 | > 100 µM (inactive) | > 100 µM (inactive) | > 100 µM (inactive) | > 100 µM (inactive) | > 100 µM (inactive) | > 100 µM (inactive) |  | > 100 µM (inactive) | > 100 µM (inactive) | > 100 µM (inactive) | > 100 µM (inactive) | > 100 µM | > 100 µM (inactive) | 17.7 µM (inactive) | 76.9 µM (inactive) | 31 µM (inactive) | > 100 µM (inactive) | > 100 µM (inactive) |  |
| O=S(=O)(SC1=NCCN1)c1cccc2ccccc12 | 23.7 µM (inactive) | 28.7 µM (inactive) | 29.8 µM (inactive) | 35.9 µM (inactive) | 21.6 µM (inactive) | 22.1 µM (inactive) | 21.7 µM (inactive) | 22.7 µM (inactive) | 28.7 µM (inactive) | 26.5 µM (inactive) | 30.3 µM (inactive) | 35.3 µM | 24.1 µM (inactive) |  | 26.2 µM (inactive) | 30.1 µM (inactive) | 27 µM (inactive) |  | 14.4 µM (inactive) |
| O=C1CC2CC=C[C@H]3c4cc5c(cc4C(=O)N1C23)OCO5 (stereo partly drawn) |  | > 50 µM (inactive) |  | > 50 µM (inactive) | > 50 µM (inactive) |  | > 50 µM (inactive) | > 50 µM (inactive) | > 50 µM (inactive) |  | > 50 µM (inactive) | > 50 µM | > 50 µM (inactive) |  |  | > 50 µM (inactive) | > 50 µM (inactive) |  | > 50 µM (inactive) |
| Cc1ccc(-c2c(C#N)c(O)n(NS(=O)(=O)c3ccccc3)c(=O)c2C#N)cc1 | > 100 µM (inactive) | > 100 µM (inactive) | > 100 µM (inactive) |  | > 100 µM (inactive) | > 100 µM (inactive) | > 100 µM (inactive) | > 100 µM (inactive) | > 100 µM (inactive) | > 100 µM (inactive) | > 100 µM (inactive) | > 100 µM | > 100 µM (inactive) |  | > 100 µM (inactive) | > 100 µM (inactive) | > 100 µM (inactive) |  | > 100 µM (inactive) |
| CC(C)(C)c1cc(CC2C(=O)c3ccccc3C2=O)cc(C(C)(C)C)c1O | 3.2 µM (inactive) | 3.13 µM (inactive) | 2.7 µM (inactive) | 2.95 µM (inactive) |  | 2.59 µM (inactive) | 5.45 µM (inactive) | 4.48 µM (inactive) | 2.94 µM (inactive) | 2.69 µM (inactive) | 2.24 µM (inactive) | 2.9 µM | 3.24 µM (inactive) | 3.94 µM (inactive) | 4.08 µM (inactive) | 5.37 µM (inactive) | 9.51 µM (inactive) |  | 2.62 µM (inactive) |
| C=CC[C@H]1O[Si](C(C)(C)C)(C(C)(C)C)[C@H](C)[C@H]1C | > 100 µM (inactive) | > 100 µM (inactive) | > 100 µM (inactive) | > 100 µM (inactive) | > 100 µM (inactive) | > 100 µM (inactive) | > 100 µM (inactive) |  | 13.6 µM (inactive) | > 100 µM (inactive) | > 100 µM (inactive) | > 100 µM | > 100 µM (inactive) |  | > 100 µM (inactive) | > 100 µM (inactive) | 39.4 µM (inactive) | > 100 µM (inactive) | > 100 µM (inactive) |
| COc1ccc(/C=C/c2cc(OC)c(O[Si](C)(C)C(C)(C)C)c(OC)c2)cc1 | > 100 µM (inactive) | > 100 µM (inactive) |  | > 100 µM (inactive) | 30.3 µM (inactive) |  | > 100 µM (inactive) | 42.2 µM (inactive) | > 100 µM (inactive) |  | 55.6 µM (inactive) | > 100 µM |  |  | 49.9 µM (inactive) | > 100 µM (inactive) | > 100 µM (inactive) |  | > 100 µM (inactive) |
| COc1cc(Br)c(CC2NCCc3cc(OC)c(OC)cc32)cc1OC (stereo not drawn) | > 100 µM (inactive) | 34 µM (inactive) |  | 25.7 µM (inactive) | 32.8 µM (inactive) |  |  | 55.2 µM (inactive) | > 100 µM (inactive) |  | 24.4 µM (inactive) |  | 12 µM (inactive) |  | > 100 µM (inactive) | > 100 µM (inactive) | 79.1 µM (inactive) |  | > 100 µM (inactive) |

Source: ChEMBL document CHEMBL1201862, “PubChem BioAssay data set” (2004)
